# According to US10429397B2 (priority 2015, dated 2019):
# System: HeLa cells
# Test: Fluorescence microscopy assay of cell permeability
# Assay type: cell-based
# Conditions: 5 mM, 1 hour, streptavidin-Cy5
# Experimental: The cells were then incubated in serum free media for 2 hours, followed by incubation with APB (5 mM) in serum free media (500 μL) for 1 hour. […] Cells were incubate with paraformaldehyde (4%, 500 μL) for 20 minutes at room temperature, then washed with 1×PBS (500 μL) three times. […] Streptavidin Cy5 (10 ug/mL) in blocking buffer (50 μL) was added and incubated with cells for 30 minutes. […] Cells were incubated with DAPI (100 μg/mL) for 5 minutes, followed by washing with 1×PBS (500 μL) 3 times each for 5 min. The cover slips were washed in water then installed on a glass slide containing Mowiol mounting solution (50 μL, Sigma Aldrich) saturated with DABCO (Sigma Aldrich). The slide was incubate at 31° C. for 30 minutes, and then kept at 4° C. until microscopy. Fluorescence photos were generated on an Olympus fluorescence microscope using laser wavelengths corresponding to DAPI (350 nm) and Cy5 (650 nm). DAPI photos were generated at 10 ms and Cy5 at 200 ms. Merged images were created using Adobe Photoshop.
compound,measurement,value
"Nc1ncnc2c1ncn2[C@@H]1O[C@H](COP(=O)(O)OP(=O)(O)OP(=O)(O)O)[C@@H](O)[C@H]1O [ATP, adenosine-5′-triphosphate, reference compound]",biotin fluorescence signal in cells (cell permeability),no biotin signal
